Source: article PMC12040169 (PLOS Biology, 2025)

Assay: in vitro
Conditions: human, hela cells, % viability

Row | SMILES | viability at 28.5 h, 10 µM [%] | viability at 28.5 h, 10 µM (bulk resorufin, single well) [%]
1 | CC(C)COc1ccc(C(CC(=O)O)C(=O)O)cc1 (centres unmarked) [CBK286759] | 103 | –
2 | Cc1cc(-c2cncc(-c3ccc(O)cc3)n2)ccc1S(=O)(=O)N1CCOCC1 [CBK131460] | 92.4 | –
3 | CCCc1nc(NC(CC)c2nc(C)c(C)s2)c2cnn(C)c2n1 (centres unmarked) [CBK307261] | 89.1 | –
4 | CC(NC(=O)C1CCN(Cc2ccc(Oc3ccccc3)cc2)CC1)c1ccccc1 (centres unmarked) [CBK148618] | 107 | –
5 | COc1ccc(-c2cc(C(F)(F)F)nc(SCC(=O)NN3CCN(C)CC3)n2)cc1 [CBK266115] | 96.5 | –
6 | O=C(O)c1cccc(Sc2nccc(C(F)(F)F)n2)c1 [CBK115957] | 90.2 | –
7 | CCN(CC)C(=O)c1ccccc1NS(=O)(=O)Cc1ccccc1[N+](=O)[O-] [CBK045428] | 99.9 | –
8 | Cc1ccc(Cl)cc1NC(=O)CC(C(=O)O)N(C)C (centres unmarked) [CBK267105] | 112 | –
9 | C[N+](C)(C)CCCCOC(c1ccccc1)c1ccccc1 [CBK261076I] | 94.1 | –
10 | NC(=O)N1CCC(C(=O)N2CC3(CCCC3)c3c(F)cccc32)CC1 [CBK304973] | 108 | –
11 | O=C1CC(c2ccc(C(=O)O)cc2)c2c(-c3ccc(Cl)cc3)n[nH]c2N1 (centres unmarked) [CBK286684] | 97 | –
12 | COc1ccc([C@]23CN(C)C[C@H]2CCN(C(=O)Nc2cccc(Br)c2)C3)cc1OC [CBK075106T] | 105 | –
13 | COc1cc(Cn2c(-c3ccc(O)c(OC)c3)nc3ccccc32)ccc1O [CBK291138] | 100 | –
14 | NC(=O)CN1CCCN(c2nccc(OCC3COc4ccccc4O3)n2)CC1 (centres unmarked) [CBK084041] | 115 | –
15 | O=C(NCC(O)c1ccc(O)cc1)c1cnc(-c2ccc(Cl)cc2)c(-c2cccnc2)c1 (centres unmarked) [CBK036656] | 92.5 | –
16 | CCn1cncc1C(=O)N1CCCC1(C)C(=O)NC1CCCC1 (centres unmarked) [CBK281376] | 81.2 | –
17 | CCCC1CCN(c2ncnc(Oc3ccc(C(=O)c4ccc(F)cc4)cc3)c2[N+](=O)[O-])CC1 [CBK116495] | 85 | –
18 | COc1ccc2oc(C(=O)NCCN3CCOCC3)c(C)c2c1OC [CBK269913C] | 86.8 | –
19 | COc1ccc(-c2cncc(N[C@@H](CO)C(C)C)n2)cc1 [CBK037941] | 82.8 | –
20 | Cc1ccc(-c2nccnc2OCCc2c[nH]c3ccccc23)cc1C [CBK106850] | 96 | –
21 | O=S(=O)(c1ccc(-c2ccc(S(=O)(=O)N3CCOCC3)cc2)cc1)N1CCOCC1 [CBK261366] | 103 | –
22 | O=[N+]([O-])c1ccc(CN2CCC(Oc3nccnc3OC3CCCCC3)CC2)cc1 [CBK082861T] | 90.4 | –
23 | O=C1NCCN1c1cccc(Cl)c1 [CBK016915] | 88.3 | –

Row | SMILES | viability at 28.5 h, 10 µM [%] | viability at 28.5 h, 10 µM (bulk resorufin, single well) [%]
24 | O=C(c1ncoc1-c1ccc(F)cc1)N1CCN2CCCCC2C1 (centres unmarked) [CBK282400] | 96.2 | –
25 | CCCC(=O)CCOC(=O)C1=C(C)OC2C1Nc1cc(F)c(F)cc1N2CC (centres unmarked) [CBK022099] | 93.4 | –
26 | O=C(O)C1CCCCN1S(=O)(=O)c1ccc(Cl)cc1 (centres unmarked) [CBK077418] | 91.6 | –
27 | COc1ccc(S(=O)(=O)N2CCN(c3ccccc3F)CC2)cc1 [CBK070377] | 87.1 | –
28 | O=C(O)CCC(=O)Nc1nc(-c2ccc(Cl)cc2)cs1 [CBK299829] | 86.8 | –
29 | CC[n+]1c(C(C)(C)C)csc1NCC1CC1 [CBK011154B] | 106 | –
30 | Cc1cc(C)c(C)c(S(=O)(=O)N(CCO)CCO)c1C [CBK269082] | 90.5 | –
31 | Cc1ccccc1OCC(=O)NCC1(N2CCCCC2)CCCCC1 [CBK297752] | 89.5 | –
32 | CCO[C@H]1CN(C)C[C@@H]1NC(=O)c1cccc2c1NCCC2 [CBK307269] | 90.4 | –
33 | CCN1CCC2(CC1)NC(=O)Cc1cc(OC)c(OC)c(OC)c12 [CBK039868] | 97.6 | –
34 | c1ccc(OCc2nc3c4c(-c5ccccc5)c(-c5ccccc5)oc4ncn3n2)cc1 [CBK262939] | 94.6 | –
35 | COc1ccc(/C(N)=N/OC(=O)C(C)Oc2ccc(Br)cc2)cc1OC (centres unmarked) [CBK266807] | 95.6 | –
36 | Cc1cc(C2CCCCCN2C(=O)c2c(C)noc2C)on1 (centres unmarked) [CBK284844] | 90 | –
37 | FC(F)c1cc(-c2ccccc2)n2ncnc2n1 [CBK025714] | 87.3 | –
38 | O=S(=O)(CCSc1ccc(Cl)cc1)Oc1ccccc1 [CBK261021] | 102 | –
39 | CCOc1ccccc1OCCCOc1ccc(C(=O)O)cc1 [CBK295144] | 110 | –
40 | CC(=O)NC[C@@H]1C=C(C)[C@H](Cc2nnc(-c3cncn3C)o2)C[C@H]1C(C)C [CBK289225] | 107 | –
41 | CCCCc1ccc(C(N)=O)nc1C(N)=O [CBK005061] | 88.8 | –
42 | O=C(c1ccc2nc[nH]c2c1)N1CCC2(CCN(Cc3ccccc3)C2)C1 (centres unmarked) [CBK136862] | 94.1 | –
43 | CC(C)n1c(=O)n(CC(=O)N(C)C2CCCCC2)c2cccnc21 [CBK283695] | 95.6 | –
44 | O=C(O)CCCC(=O)NC12CC3CC(CC(C3)C1)C2 [CBK286958] | 97.4 | –
45 | CCCc1[nH]nc(O)c1Cc1cccc(C)c1 [CBK075035] | 91.3 | –
46 | CC1(C)CC(NC2=CC(=O)CC2)CC(C)(C)N1 [CBK028997] | 115 | –

Row | SMILES | viability at 28.5 h, 10 µM [%] | viability at 28.5 h, 10 µM (bulk resorufin, single well) [%]
47 | Cc1ccccc1Sc1ncccc1C(F)(F)F [CBK115231] | 104 | –
48 | CC(NC(=O)C1CCN(CCn2cnc3c2c(=O)n(C)c(=O)n3C)CC1)c1ccccc1 (centres unmarked) [CBK148624] | 99.4 | –
49 | c1ccc(-n2nnnc2CSc2nc3ccccc3s2)cc1 [CBK266372] | 102 | –
50 | CC(C)c1cc(C(=O)N(Cc2ccccn2)CC2CCCO2)on1 (centres unmarked) [CBK306579] | 95.3 | –
51 | c1ccc2c(c1)nnn2Cc1nnc2sc(-c3cnccn3)nn12 [CBK268393] | 84.7 | –
52 | c1ccc(CN2CCN(Cc3ccccc3)C2c2ccc[nH]2)cc1 [CBK261283] | 82.9 | –
53 | O=S(=O)(NC1CCN(Cc2ccccc2)CC1)c1cccc2nsnc12 [CBK062029] | 80.8 | –
54 | CCc1noc(C)c1C(=O)Nc1cc(S(=O)(=O)N2CCCCC2)ccc1N(C)C [CBK295328] | 85.4 | –
55 | NC(=O)c1c(NC(=O)c2ccc(COc3cc(Cl)ccc3Cl)o2)sc2c1CCCC2 [CBK265775] | 85.4 | –
56 | COc1cccc(NC(=O)CN2CCC(NC(=O)c3cccs3)CC2)c1 [CBK305800] | 96.3 | –
57 | Cc1nn(C)c(Cl)c1S(=O)(=O)NCCc1c[nH]c2ccccc12 [CBK067310] | 85.2 | –
58 | Cc1nc2c(c(=O)[nH]1)CN(Cc1c(C)oc3ccccc13)CC2 [CBK283984] | 94.8 | –
59 | CSc1cc(CC(C)(C)C)c2cccc(F)c2n1 [CBK018791] | 99.8 | –
60 | COc1ccc(-c2cncc(NCc3ccncc3)n2)cc1 [CBK065394] | 111 | –
61 | COc1cccc(C2(O)CCC3CN(C(C)=O)CC32)c1 (centres unmarked) [CBK283222] | 95.8 | –
62 | CSCCOc1cc(N2CCCC2)ncn1 [CBK115900] | 90 | –
63 | O=c1[nH]ccn2nc(-c3ccc4c(c3)OCO4)cc12 [CBK288048] | 87.7 | –
64 | CC(NC(=O)c1cc(-c2ccccc2)nc2ccccc12)c1cccc(S(N)(=O)=O)c1 (centres unmarked) [CBK298285] | 79.5 | –
65 | O=C(c1cc(S(=O)(=O)N2CCOCC2)ccc1Cl)N1CCCCC1 [CBK304377] | 94.1 | –
66 | OC(CN1CCC(O)(c2ccc(F)cc2)CC1)c1ccc(-c2ccccc2)cc1 (centres unmarked) [CBK286328] | 90 | –
67 | CSCCC(NC(=O)CCc1ccccc1)c1nnc2ccccn12 (centres unmarked) [CBK304350] | 95.4 | –
68 | COC(=O)c1ccc(/C=N/N=C2\NC(=O)C(CC(=O)Nc3ccccc3)S2)cc1 (centres unmarked) [CBK264483] | 93.6 | –
69 | CCCCOc1nccnc1/C=C/c1ccccc1 [CBK106890] | 92 | –

Row | SMILES | viability at 28.5 h, 10 µM [%] | viability at 28.5 h, 10 µM (bulk resorufin, single well) [%]
70 | O=C(COc1ccc2ccccc2c1)Nc1ccc(S(=O)(=O)N2CCCCC2)cc1 [CBK263765] | 118 | –
71 | CCn1c2cc(C)sc2c2cnn(CC(=O)NC(C)C)c(=O)c21 [CBK284172] | 85.8 | –
72 | COCCCN(Cc1ccccn1)Cc1cc(F)ccc1F [CBK282950] | 108 | –
73 | Brc1nc2c3c(nc(N4CCOCC4)c2s1)CCCC3 [CBK019604] | 83.4 | –
74 | O=C(c1cc(S(=O)(=O)N2CCCCC2)c(Cl)cc1N1CCOCC1)N1CCOCC1 [CBK263400] | 82.5 | –
75 | Cc1nc(CCNC(=O)N(Cc2cnn(C)c2)C2CC2)nc2c1CCC2 [CBK307650] | 86.1 | –
76 | Cc1ccc2[nH]c3c(c2c1)CCNCC3 [CBK004811] | 98.3 | –
77 | CCOc1ccccc1NC(=O)CSc1nc(N)cc(O)n1 [CBK268075] | 107 | –
78 | Cc1cc(N(C)C)cc(C2CCCN(C(=O)c3cccc(F)c3)C2)n1 (centres unmarked) [CBK282003] | 95.1 | –
79 | O=C1COc2ccccc2C/C=C/CC2(CCCN(C(=O)CN3CSCC3=O)C2)CN1 (centres unmarked) [CBK292035] | 116 | –
80 | O=C(Cn1c(=O)n(Cc2cccs2)c2ncccc21)NCC1CC1 [CBK283899] | 89.3 | –
81 | Cc1c(Cl)cccc1NC(=O)CSc1nnc(Cc2cccc3ccccc23)n1-c1ccccc1 [CBK266042] | 98.7 | –
82 | COc1ccc(N2C(=O)c3ccc(C(=O)OCC(=O)c4ccc(-c5ccccc5)cc4)cc3C2=O)cc1 [CBK263532] | 95.8 | –
83 | NC(=O)Cn1cc(C(=O)COc2ccccc2)c2ccccc21 [CBK267650] | – | 95.2
84 | Fc1ccc(N2CCN(c3ncnc4[nH]cnc34)CC2)cc1 [CBK287387] | 89.8 | –
85 | CCS(=O)(=O)N1CCN(S(=O)(=O)c2ccccc2[N+](=O)[O-])CC1 [CBK264289] | 99 | –
86 | O=C(Cc1nnn[nH]1)N1CCCC2(CCN(C(=O)c3ccoc3)C2)C1 (centres unmarked) [CBK137077] | 91.8 | –
87 | O=C(O)C1CCN(S(=O)(=O)c2ccccc2[N+](=O)[O-])CC1 [CBK265267] | 98.6 | –
88 | COc1ccc(S(=O)(=O)N2CCOCC2)cc1C(=O)Nc1ccc2c(c1)OCO2 [CBK265548] | 102 | –
89 | O=C(N[C@H]1CCN2C(=O)c3cc(-c4ccc5c(c4)OCO5)ccc3NC(=O)[C@H]12)C1CCCC1 [CBK289333] | 103 | –
